Measured values taken from patent US20010044151A1, “Ligands for modulating the expression of exogenous genes via an ecdysone receptor complex” (priority 1998, published 2001).

How the values were obtained:
[1] = biological target: CfEcR(CDEF)-GST and CfUSP-GST fusion proteins; assay: Competitive 3H-ponasterone A binding assay, bacterial GST fusion proteins; parameters: species or system Choristoneura fumiferana; conditions: bacterial CfEcR(CDEF)-GST/CfUSP-GST extracts, 3H-ponasterone A displacement
From the text: Bacterial glutathion-S-transferase (GST) fusion proteins of the spruce budworm (Choristoneura fumiferana) EcR (CfEcR), containing CDEF domains only, and ultraspiracle protein (CfUSP) were also used in radioligand displacement assays. cDNA encoding the CDEF domains of CfEcR were constructed following PCR amplification using primers that contain BamH1 and EcoRI sites (Perera S C, M Sundaram, Krell P J, Retnakaran A, Dhadialla T S, S R Palli, 1999 Arch. Insect Biochem. Physiol. 41 In Press). The PCR produce was digested with BamHI and EcoRI and cloned into pGEX-3X vector obtained from Pharmacia Biotech. CfUSP coding region was amplified using primers that contain BamH1 and EcoRI sites and cloned into to pGEX-2T vector obtained from Pharmacia Biotech. E. coli transformed with each of the two vectors were grown and induced to produce the fusion proteins as detailed in the Pharmacia Biotech GST-technical bulletin.
The concentrations of competitors that inhibited 50% of tritiated ponasterone A binding (IC50) was determined by incubating Kc or Plodia nuclear extracts or extracts of bacteria producing CfEcR(CDEF)-GST and CfUSP-GST fusions proteins with ^3H-ponasterone A (66,000 dpm per reaction) in the presence of a range of concentrations (0.1 nM to 10 μM) of test compounds. In the case of binding reactions using bacterial fusion proteins, 20 or one μl extract of bacteria producing CfEcR(CDEF)-GST or CfUSP-GST fusion proteins, respectively, were included per binding reaction. The assay conditions and determination of total and non-specific binding was as described above. The volume of competitor in solvent, like that for 20E or solvent alone, was kept at 1% of total reaction volume by using a 100 fold concentrated stock solution (i.e. a 100 fold dilution of stock solutions). The remainder of the assay was as described above. Each reaction was carried out in duplicate per concentration per test compound. […]

Spodoptera exigua = assay: Translaminar movement into cotton leaves, mortality of neonate beet armyworm larvae; type: in vivo; conditions: versus CE-1
Protocol: A study was conducted to evaluate translaminar movement of two compounds into cotton leaves using neonate beet armyworm larvae, Spodoptera exigua, as the model system.
Two treatments were evaluated: emulsifiable concentrates of CE-1 and Ligand 3 (5% and 19%, respectively), at a concentration of 100 μg/ml to simulate spray tank concentrations. These treatments were then compared with plants treated with a chemical standard known to have excellent translaminar movement (emamectin benzoate, 0.16% EC [20 μg/ml], Merck & Co.) and with nontreated plants.
Four-week-old cotton, Gossypium hirsutum L. ev. Stoneville, plants were treated with each treatment by painting the top surface of a single replicate leaf/plant with a corresponding treatment. Plants were held in a controlled environment glasshouse maintained at 27° C. until needed. Residual effectiveness was evaluated by challenging treated and nontreated foliage with neonate beet armyworm larvae, Spodoptera exigua (Hubner), on 3 dates: 1, 7 and 14 days after treatment (DAT). On each sample date, the single treated leaf/plant was excised from each of five replicate plants per treatment. […] Mortality of larvae was recorded 4 days after infestation. […]
Percentage mortality data were transformed to the arcsine of the square-root and then analyzed by ANOVA using JMP (Ver. 3.2.1). […]

Q: Which results are given for COc1cccc(C(=O)NN(C(=O)c2cc(C)cc(C)c2)C(C)(C)C)c1C [Ligand 3]?
A: Bacterial CfECR log(1/IC50) [1]: 8.76; Effectiveness at killing S. exigua larvae from translaminar movement (comparison in words) (Spodoptera exigua): significantly more effective than CE-1
